Data: patent US9278914B2, “SARMs and method of use thereof” (UNIVERSITY OF TENNESSEE RESEARCH FOUNDATION, priority 2004, dated 2016)

Assays:
[1] = system: castrated (ORX) male Sprague-Dawley rats; assay: Anabolic and androgenic activity in castrated (ORX) male rats, daily oral gavage for fourteen days; format: in vivo, rat; settings: ORX rats
Method: Male Sprague-Dawley rats weighing approximately 200 g were purchased from Harlan Bioproducts for Science (Indianapolis, Ind.).
The test article for this study was weighed and dissolved in 10% DMSO (Fisher) diluted with PEG 300 (Acros Organics, N.J.) for preparation of the appropriate dosage concentrations. […] Animals were randomly assigned to one of seven groups consisting of 4 to 5 animals per group. Control groups (intact and ORX) were administered vehicle daily. […] Where appropriate, animals were castrated on day one of the study.
In addition, ventral prostate, seminal vesicles, and levator ani muscle were removed, individually weighed, normalized to body weight, and expressed as a percentage of intact control. Student's T-test was used to compare individual dose groups to the intact control group. Significance was defined a priori as a P-value<0.05. Ventral prostate and seminal vesicle weights were evaluated as a measure of androgenic activity, whereas levator ani muscle weight was evaluated as a measure of anabolic activity. Blood was collected from the abdominal aorta, centrifuged, and sera were frozen at −80° C. prior to determination of serum hormone levels. Serum luteinizing hormone (LH) and follicle stimulating hormone (FSH) concentrations were determined.
(§1) The test article for this study was weighed and dissolved in 10% DMSO (Fisher) diluted with PEG 300 (Acros Organics, N.J.) for preparation of the appropriate dosage concentrations. […] Animals were randomly assigned to one of seven groups consisting of 4 to 5 animals per group. Control groups (intact and ORX) were administered vehicle daily. Compound of formula S-XXIII was administered via oral gavage at doses of 0.01, 0.03, 0.1, 0.3, 0.75, and 1 mg/day to both intact and ORX groups. Where appropriate, animals were castrated on day one of the study. Treatment with compound of formula S-XXIII began nine days post ORX and was administered daily via oral gavage for fourteen days.
Male Sprague-Dawley rats weighing approximately 200 g were purchased from Harlan Bioproducts for Science (Indianapolis, Ind.). […] Regenerative effects of the compound of formula S-XXIV in chronically (9 days) ORX rats was similarly evaluated.
as §1, with “S-XXIV” for “S-XXIII”
Male Sprague-Dawley rats weighing approximately 200 g were purchased from Harlan Bioproducts for Science (Indianapolis, Ind.). […] Anabolic and androgenic activity of compound of formula S-XXV in intact animals was evaluated, and the dose response in acutely orchidectomized (ORX) animals was evaluated as well.
The compound was weighed and dissolved in 10% DMSO (Fisher) diluted with PEG 300 (Acros Organics, N.J.) for preparation of the appropriate dosage concentrations.

[2] = Pharmacokinetics in beagle dogs; format: in vivo; settings: dog, plasma

## C[C@](O)(COc1ccc(Cl)c(F)c1)C(=O)Nc1ccc(C#N)c(C(F)(F)F)c1 [S-II, (S)-3-(4-chloro-3-fluorophenoxy)-N-(4-cyano-3-(trifluoromethyl)phenyl)-2-hydroxy-2-methylpropanamide]
[1]; 0.01 mg/day oral
  Levator ani muscle weight: 50%±5%
  Prostate weight: 12%±3%
  Seminal vesicle weight: 11%±1%
[1]; 0.03 mg/day oral
  Levator ani muscle weight: 62%±6%
  Prostate weight: 26%±7%
  Seminal vesicle weight: 11%±1%
[1]; 0.1 mg/day oral
  Levator ani muscle weight: 89%±10%
  Prostate weight: 39%±6%
  Seminal vesicle weight: 27%±14%
[1]; 0.3 mg/day oral
  Levator ani muscle weight: 118%±6%
  Prostate weight: 60%±14%
  Seminal vesicle weight: 58%±18%
[1]; 0.75 mg/day oral
  Levator ani muscle weight: 134%±8%
  Prostate weight: 88%±16%
  Seminal vesicle weight: 86%±12%
[1]; 1 mg/day oral
  Seminal vesicle weight: 100%±8%
[2]; oral
  clearance: 0.36 ± 0.12 mL/min/kg
  half-life: 37 ± 26.8 h
[2]; oral, read-out: Vz
  Vd: 1.27 ± 0.352 L/kg
[2]; po, peroral
  bioavailability: 72.5%
